Assay results published in article PMC12892976, “Alkylation-based optimization of antifungal FPPS inhibitors yields a potent, broad-spectrum lipophilic zoledronate derivative” (mBio, 2025).
≈ marks a conversion by molar mass, not a printed value.

How the values were obtained:
Aspergillus fumigatus [1] = assay: checkerboard drug interaction (FICI, MICc); format: cell-based;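 also: simplified diagonal checkerboard screen pairing antifungals with FPPS inhibitors against Aspergillus fumigatus, with FICI calculated under the Loewe additivity model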
Description: (§1) Drug interactions between antifungals and FPPS inhibitors were investigated using a simplified checkerboard diagonal screening method ([45]). […] FICIs were determined according to the Loewe additivity model ([17]).

Cryptococcus neoformans [2] = assay: MIC/MFC broth microdilution (CLSI); details: Cryptococcus neoformans;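 also: susceptibility testing followed the CLSI M27-Ed4 broth microdilution document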
Description: (§2) Antifungal susceptibility was determined by broth microdilution according to the CLSI guidelines described in M27-Ed4 ([16]). […] MFC was determined by back-plating drug-treated cultures from MIC broths onto SDA plates. The MFC was defined as the lowest concentration from which no colonies could be cultured.

Candida albicans = assay: checkerboard drug interaction (FICI, MICc);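 as to all read-outs here: antifungal plus FPPS inhibitor combinations on Candida albicans tested by a simplified diagonal checkerboard screen, with FICI calculated under the Loewe additivity model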; format: cell-based; details: C. albicans; for INH FD (MIC-MICc fold decrease): fold decrease of inhibitor MIC
Description: as §1

Trichophyton rubrum = assay: MIC/MFC broth microdilution (CLSI); details: Trichophyton rubrum
Description: as §2

[3] = tested on: Cryptococcus deuterogattii; assay: checkerboard drug interaction (FICI, MICc);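 as to all read-outs here: simplified diagonal checkerboard screen pairing antifungal drugs with FPPS inhibitors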; format: cell-based; details: C. deuterogattii; for INH FD (MIC-MICc fold decrease): fold decrease of inhibitor MIC
Description: as §1

Saccharomyces cerevisiae = assay: checkerboard drug interaction (FICI, MICc); format: cell-based; set-up: INH MICc / INH MICc (ITR:INH) / INH MICc (KET:INH) / INH MICc (FLC:INH): unit not given beside the values;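 also: simplified diagonal checkerboard screen pairing antifungals with FPPS inhibitors, FICI calculated under the Loewe additivity model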
Cryptococcus neoformans [4] = assay: checkerboard drug interaction (FICI, MICc);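 as to all read-outs here: antifungal plus FPPS inhibitor pairs tested against Cryptococcus neoformans by simplified diagonal checkerboard screening, FICI computed under the Loewe additivity model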; format: cell-based; details: C. neoformans; for INH FD (MIC-MICc fold decrease): fold decrease of inhibitor MIC
Description: as §1

Aspergillus fumigatus [5] = assay: MIC/MFC broth microdilution (CLSI); details: ATCC204305
Description: as §2

[6] = MIC-MICc fold decrease of itraconazole, negative = increase
[7] = MIC-MICc fold decrease of ketoconazole, negative = increase
[8] = MIC-MICc fold decrease of the inhibitor, with fluconazole
[9] = MIC-MICc fold decrease of the inhibitor, with itraconazole
[10] = MIC-MICc fold decrease of the inhibitor, with ketoconazole
[11] = FLC:INH combination, MIC of the inhibitor in combination with FLC
[12] = FLC:INH combination, fold decrease of FLC MIC
[13] = ITR:INH combination, MIC of the inhibitor in combination with ITR
[14] = ITR:INH combination, fold decrease of ITR MIC
[15] = KET:INH combination, MIC of the inhibitor in combination with KET
[16] = KET:INH combination, fold decrease of KET MIC

## CCCCCCCCCCCN1CCC[C@H]1C(=O)N[C@H](CC(=O)OC)C(=O)OC [dmPDA11]
Aspergillus fumigatus [1]; [6]
  ITR FD (ITR:INH): 2
Aspergillus fumigatus [1]; [7]
  KET FD (KET:INH): 1
Aspergillus fumigatus [1]; [8]
  INH FD (FLC:INH): 1
Aspergillus fumigatus [1]; [9]
  INH FD (ITR:INH): 32
Aspergillus fumigatus [1]; [10]
  INH FD (KET:INH): -2
Cryptococcus neoformans [2]
  MFC: 32 mg/L (≈ 77.6 µM)
  MIC: 16 mg/L (≈ 38.8 µM)
Candida albicans; FLC:INH combination
  FICI: 1.06
  INH FD (MIC-MICc fold decrease): 16
Candida albicans; [11]
  INH MICc: 8
Candida albicans; [12]
  FLC FD (MIC-MICc fold decrease): 1
Candida albicans; ITR:INH combination
  FICI: 1.06
  INH FD (MIC-MICc fold decrease): 16
Candida albicans; [13]
  INH MICc: 8
Candida albicans; [14]
  ITR FD (MIC-MICc fold decrease): 1
Candida albicans; KET:INH combination
  FICI: 1.06
  INH FD (MIC-MICc fold decrease): 16
Candida albicans; [15]
  INH MICc: 8
Candida albicans; [16]
  KET FD (MIC-MICc fold decrease): 1
Trichophyton rubrum
  MFC: > 128 mg/L
  MIC: 16 mg/L (≈ 38.8 µM)
[3]; FLC:INH combination
  FICI: 1.5
  INH FD (MIC-MICc fold decrease): 1
[3]; [11]
  INH MICc: 32
[3]; [12]
  FLC FD (MIC-MICc fold decrease): 2
[3]; ITR:INH combination
  FICI: 2
  INH FD (MIC-MICc fold decrease): 1
[3]; [13]
  INH MICc: 32
[3]; [14]
  ITR FD (MIC-MICc fold decrease): 1
[3]; KET:INH combination
  FICI: 1.13
  INH FD (MIC-MICc fold decrease): 1
[3]; [15]
  INH MICc: 32
[3]; [16]
  KET FD (MIC-MICc fold decrease): 8
Saccharomyces cerevisiae; Fractional Inhibitory Concentration Index, fluconazole + inhibitor
  FICI (FLC:INH): ≥4
Saccharomyces cerevisiae; Fractional Inhibitory Concentration Index, itraconazole + inhibitor
  FICI (ITR:INH): 2
Saccharomyces cerevisiae; Fractional Inhibitory Concentration Index, ketoconazole + inhibitor
  FICI (KET:INH): 1.25
Saccharomyces cerevisiae; MIC of the inhibitor in combination with fluconazole
  INH MICc (FLC:INH): 256
Saccharomyces cerevisiae; MIC of the inhibitor in combination with itraconazole
  INH MICc (ITR:INH): 64
Saccharomyces cerevisiae; MIC of the inhibitor in combination with ketoconazole
  INH MICc (KET:INH): 64
Saccharomyces cerevisiae; MIC-MICc fold decrease of fluconazole, negative = increase
  FLC FD (FLC:INH): -2
Saccharomyces cerevisiae; [6]
  ITR FD (ITR:INH): 1
Saccharomyces cerevisiae; [7]
  KET FD (KET:INH): 4
Saccharomyces cerevisiae; [8]
  INH FD (FLC:INH): -4
Saccharomyces cerevisiae; [9]
  INH FD (ITR:INH): 1
Saccharomyces cerevisiae; [10]
  INH FD (KET:INH): 1
Cryptococcus neoformans [4]; FLC:INH combination
  FICI: 1.5
  INH FD (MIC-MICc fold decrease): 2
Cryptococcus neoformans [4]; [11]
  INH MICc: 32
Cryptococcus neoformans [4]; [12]
  FLC FD (MIC-MICc fold decrease): 1
Cryptococcus neoformans [4]; ITR:INH combination
  FICI: 0.75
  INH FD (MIC-MICc fold decrease): 4
Cryptococcus neoformans [4]; [13]
  INH MICc: 16
Cryptococcus neoformans [4]; [14]
  ITR FD (MIC-MICc fold decrease): 2
Cryptococcus neoformans [4]; KET:INH combination
  FICI: 3
  INH FD (MIC-MICc fold decrease): 1
Cryptococcus neoformans [4]; [15]
  INH MICc: 64
Cryptococcus neoformans [4]; [16]
  KET FD (MIC-MICc fold decrease): -2
Aspergillus fumigatus [5]
  MFC: 128 mg/L (≈ 310 µM)
  MIC: > 128 mg/L
